One test concerns the target human OATP1B1 (Homo sapiens (Human), UniProt Q9Y6L6). The test is described as follows: In Vitro Inhibition Assessment with Human OATP1B1 Transporter. It counts as in vitro ADME. Particulars: HEK293-OATP1B1 cells, probe substrate pravastatin. Here is the method: In Vitro Inhibition Assessment with Human OATP1B1 and OATP1B3 Transporters Assay Protocol
The purpose of this assay was to assess the inhibition potential of test article (TA) toward human OATP1B1 and OATP1B3 transporters in vitro using cell lines transfected with the individual transporters. The assays used clinically relevant probe substrate pravastatin and a known positive control inhibitor rifampicin. HEK293 mock, HEK293-OATP1B1, and HEK293-OATP1B3 transfected cells were seeded onto CellCoat Poly-D-Lysine coated 96 well black cell culture plates with clear bottoms (Greiner bio-one, Cat. #655946) at a density of 70,000 cells/well and cultured to confluency overnight. Seeding media used was Dulbecco's Modification of Eagle's Medium (DMEM—with GlutaMAX high glucose; Gibco, Cat #: 10569-010) supplemented with 10% fetal bovine serum, 0.1 mM non-essential amino acids, 100 U/mL penicillin, and 100 μg/mL streptomycin. On assay day, media were removed from the assay plates and cells were washed with Hanks' Balanced Salt Solution (HBSS Buffer) (Corning, Cat. #21-023-CV). All TAs and reference inhibitor were serially diluted in DMSO to create spiking solutions at concentrations of 250-fold of final assay concentrations (final DMSO content 0.4%). Cells were preincubated with HBSS buffer containing test compounds for 15 minutes. After the removal of HBSS buffer, dose solution containing TA or reference inhibitor and probe substrate were added to the HEK293-OATP1B1, HEK-293-OATP1B3 and its associated mock cell plate, respectively. The co-incubation period of TAs with the corresponding probe substrate for all plates was 5 minutes. An aliquot of the dose solution was removed from the HEK293 mock cell plates and analysed for dose recovery. Cells were then washed three times with ice cold HBSS buffer and then immediately extracted with methanol:water (70:30 v:v) containing internal standard labetolol (30 nM). The supernatants were evaporated to dryness on injection plates and reconstituted in 80% water containing 20% acetonitrile and 0.1% formic acid for analysis by liquid chromatography with tandem mass spectrometry (LC-MS-MS).
Fractional transport activities were calculated from the equation: Activity %=(A−B)/(C−D)×100
• A: translocated amount of substrate in the presence of TA on transfected cells • B: translocated amount of substrate in the presence of TA on Mock cells • C: translocated amount of substrate in the presence of solvent on transfected cells • D: translocated amount of substrate in the presence of solvent on Mock cells
GraphPad Prism 7.0 (GraphPad Software Inc., San Diego, CA) was used for curve fitting and determination of reaction parameters. In uptake transporter inhibition assays, the IC50 (μM) was calculated, where applicable. IC50 was defined as the concentration of TA required to inhibit maximal activity by 50%.

In the next test the target is human KHK-C (Homo sapiens (Human), UniProt P50053). The test is described as follows: KHK Biochemical Assay (IC50), ADP-Glo, KHK-C. To be noted: average of at least two separate assays. Summed up: (§1)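 Luminescent ADP-Glo read-out of ADP made by His-tagged KHK (BL21 (DE3) expression, Ni-NTA). Enzyme and compound sat together 30 min before ATP/fructose addition, then reacted 4 h at RT in Hepes pH 7.4 buffer with KCl, MgCl2, Triton-X. Quench 1 h, detection 1 h.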
Sequence of human KHK-C (P50053 whole entry): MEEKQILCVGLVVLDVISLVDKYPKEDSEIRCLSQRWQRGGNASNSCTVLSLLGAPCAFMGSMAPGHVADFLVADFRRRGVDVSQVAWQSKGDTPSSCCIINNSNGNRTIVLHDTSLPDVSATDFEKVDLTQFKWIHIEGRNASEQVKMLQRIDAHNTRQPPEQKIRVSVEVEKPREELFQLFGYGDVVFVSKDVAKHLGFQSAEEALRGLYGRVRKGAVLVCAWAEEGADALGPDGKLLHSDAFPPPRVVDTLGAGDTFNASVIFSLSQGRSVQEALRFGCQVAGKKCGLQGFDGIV

The target in test [1] is KHK-C expressed in NRK-52E cells (Homo sapiens (Human), UniProt P50053). The test can be described thus: KHK-C Cell-based Assay (EC50), NRK CTG, fructose-mediated ATP-depletion.
Sequence of KHK-C expressed in NRK-52E cells (P50053 whole entry): as above
A further test concerns HepG2 cells. The test is described as follows: F1P Cell-Based Assay (EC50), 13C6-fructose-1-phosphate in HepG2 cells (cell culture medium or 50% human plasma). To be noted: Homo sapiens.
The next test concerns the target human KHK-A (Homo sapiens (Human), UniProt P50053). The test is described as follows: KHK Biochemical Assay (IC50), ADP-Glo, KHK-A. Particulars: average of at least two separate assays. Summed up:
as §1
For orientation: ADP-Glo first removes unused ATP, then detects ADP through luciferase.

The mark [2] stands for this setting: HepG2, HepG2 cells, 50% human plasma, read-out: F1P 50% HP EC50.
The mark [3] stands for this setting: HepG2, read-out: F1P 10% FBS EC50, HepG2 cells, cell culture medium (10% FBS).

Structures are written as SMILES. pEC50, pIC50: −log10 of the molar value. Like-named read-outs stand apart in the source and are kept apart here.

Sequence of human KHK-A (P50053 other isoform, or with tags, fused parts or gaps): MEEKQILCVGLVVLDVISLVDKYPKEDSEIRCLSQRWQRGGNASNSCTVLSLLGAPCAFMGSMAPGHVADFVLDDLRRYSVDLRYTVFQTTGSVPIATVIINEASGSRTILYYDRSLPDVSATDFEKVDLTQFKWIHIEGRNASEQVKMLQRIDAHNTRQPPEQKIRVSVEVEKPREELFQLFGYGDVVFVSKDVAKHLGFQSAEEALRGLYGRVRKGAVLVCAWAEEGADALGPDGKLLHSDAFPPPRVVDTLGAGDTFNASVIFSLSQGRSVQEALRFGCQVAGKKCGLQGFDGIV
Sequence of human OATP1B1 (Q9Y6L6 whole entry): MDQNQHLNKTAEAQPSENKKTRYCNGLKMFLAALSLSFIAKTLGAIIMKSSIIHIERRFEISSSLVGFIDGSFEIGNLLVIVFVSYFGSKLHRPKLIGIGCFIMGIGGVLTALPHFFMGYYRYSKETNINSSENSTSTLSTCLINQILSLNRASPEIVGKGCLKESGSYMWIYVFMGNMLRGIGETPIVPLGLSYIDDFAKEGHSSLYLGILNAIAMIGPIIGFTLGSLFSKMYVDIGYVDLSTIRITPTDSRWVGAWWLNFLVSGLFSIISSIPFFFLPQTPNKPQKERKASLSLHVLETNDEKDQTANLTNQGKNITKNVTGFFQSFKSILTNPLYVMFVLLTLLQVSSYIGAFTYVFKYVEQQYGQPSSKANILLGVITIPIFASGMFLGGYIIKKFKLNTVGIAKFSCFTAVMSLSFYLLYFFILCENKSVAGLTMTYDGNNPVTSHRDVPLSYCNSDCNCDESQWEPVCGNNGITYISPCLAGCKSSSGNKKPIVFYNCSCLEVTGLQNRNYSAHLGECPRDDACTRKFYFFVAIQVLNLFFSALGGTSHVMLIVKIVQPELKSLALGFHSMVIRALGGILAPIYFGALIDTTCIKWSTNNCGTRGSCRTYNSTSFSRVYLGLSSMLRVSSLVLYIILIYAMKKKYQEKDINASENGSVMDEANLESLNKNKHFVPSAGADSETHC

For orientation: pIC50 means −log10 of the IC50, conventionally taken in molar units. The low end stands for a high IC50, the high end for a low IC50. By pEC50 is commonly meant −log10 of the EC50, conventionally taken in molar units. Turning to `C[C@H]1CCN1c1nc(-c2ccc(C3(N)CS(=O)(=O)C3)cc2)c2c(n1)C(F)(F)CC2` [Example 769, (S)-3-amino-3-(4-(7,7-difluoro-2-(2-methylazetidin-1-yl)-6,7-dihydro-5H-cyclopenta[d]pyrimidin-4-yl)phenyl)thietane 1,1-dioxide], the pIC50 against human OATP1B1 was 4.72; on human KHK-C it was 9.10. Moreover, the results for the pEC50 (in test [1]; in the test with HepG2 cells (setting [2]); with HepG2 cells (setting [3])) were 8.51, 7.74 and 8.17, respectively.

Take `C[C@H]1CCN1c1nc2c(c(-c3cccc(CCC(=O)O)c3)n1)CCC2` [Example 4, (S)-3-(3-(2-(2-methylazetidin-1-yl)-6,7-dihydro-5H-cyclopenta[d]pyrimidin-4-yl)phenyl)propanoic acid]: the pIC50 on human OATP1B1 is 6.03; at human KHK-A (ADP-Glo), 7.38; on human KHK-C (ADP-Glo), 7.34. The pEC50 in test [1] is 6.51.

`C[C@H]1[C@H](O)CN1c1nc(-c2ccc3c(c2)CCCNC3=O)c2c(n1)C(F)(F)CC2` [Example 178, 7-(7,7-difluoro-2-((2S,3R)-3-hydroxy-2-methylazetidin-1-yl)-6,7-dihydro-5H-cyclopenta[d]pyrimidin-4-yl)-2,3,4,5-tetrahydro-1H-benzo[c]azepin-1-one]: the pIC50 on human OATP1B1 was 5.87; against human KHK-C (ADP-Glo), 8.27. Moreover, the pEC50 is 7.56 in test [1], 7.39 with HepG2 cells (setting [2]) and 7.66 with HepG2 cells (setting [3]).

For `C[C@H]1CCN1c1nc(-c2ccc3c(=O)[nH]ccc3c2)c2c(n1)C(F)(F)CC2` [Example 317, (S)-6-(7,7-difluoro-2-(2-methylazetidin-1-yl)-6,7-dihydro-5H-cyclopenta[d]pyrimidin-4-yl)isoquinolin-1(2H)-one], the pIC50 on human OATP1B1 was 6.55; against human KHK-A (ADP-Glo), 8.31; against human KHK-C (ADP-Glo), 8.77. In test [1], the pEC50 was 8.46.

For `C[C@H]1[C@H](O)CN1c1nc2c(c(-c3cccc(CNS(C)(=O)=O)c3)n1)CCC2` [Example 285], the pIC50 was 5.90 at human OATP1B1, 7.24 against human KHK-A (ADP-Glo) and 7.32 against human KHK-C (ADP-Glo). The compound also had a pEC50 in test [1] of 7.08.

Take `C[C@H]1CCN1c1nc(-c2ccc3c(c2)CCNC3)c2c(n1)C(F)(F)CC2` [Example 642, 6-[7,7-difluoro-2-[(2S)-2-methylazetidin-1-yl]-5,6-dihydrocyclopenta[d]pyrimidin-4-yl]-1,2,3,4-tetrahydroisoquinoline]: the values for the negative logarithm of the IC50 (pIC50) against human OATP1B1 and at human KHK-C were 4.65 and 9.05, respectively. For the same compound, the pEC50 is 8.39 in test [1], 8.62 in the test with HepG2 cells (setting [2]) and 8.96 in the test with HepG2 cells (setting [3]).

`C[C@H]1CCN1c1nc2c(c(-c3ccc4c(=O)[nH]cnc4c3)n1)CCC2` [Example 383, 7-[2-[(2S)-2-methylazetidin-1-yl]-6,7-dihydro-5H-cyclopenta[d]pyrimidin-4-yl]-3H-quinazolin-4-one]: the negative logarithm of the IC50 (pIC50) on human OATP1B1 is 6.71; against human KHK-A (ADP-Glo) it was 7.97; on human KHK-C (ADP-Glo) it was 8.36. The compound further had a negative logarithm of the EC50 (pEC50) in test [1] of 8.14.

For the compound `C[C@H]1[C@H](O)CN1c1nc(-c2cccc(CN(C)S(C)(=O)=O)c2)c2c(n1)C(F)(F)CC2` [Example 462, N-(3-(7,7-difluoro-2-((2S,3R)-3-hydroxy-2-methylazetidin-1-yl)-6,7-dihydro-5H-cyclopenta[d]pyrimidin-4-yl)benzyl)-N-methylmethanesulfonamide], the figures for the pIC50 on human OATP1B1 and at human KHK-C were 5.56 and 8.49, respectively. The values for the pEC50 (in test [1]; with HepG2 cells (setting [2]); in the test with HepG2 cells (setting [3])) were 8.04, 7.47 and 8.02, respectively.

In the case of `C[C@H]1[C@H](O)CN1c1nc(-c2cccc(S(N)(=O)=O)c2)c2c(n1)C(F)(F)CC2` [Example 322, 3-(7,7-difluoro-2-((2S,3R)-3-hydroxy-2-methylazetidin-1-yl)-6,7-dihydro-5H-cyclopenta[d]pyrimidin-4-yl)benzenesulfonamide], the results for the pIC50 against human OATP1B1, on human KHK-A (ADP-Glo) and at human KHK-C (ADP-Glo) were 4.88, 8.29 and 8.13, respectively. In test [1], the negative-log EC50 (pEC50) is 7.12.

In the case of `CCOc1cc(-c2nc(N3C[C@@H](O)[C@@H]3C)nc3c2CCC3(F)F)ccc1C(N)=O` [Example 170, 4-(7,7-difluoro-2-((2S,3R)-3-hydroxy-2-methylazetidin-1-yl)-6,7-dihydro-5H-cyclopenta[d]pyrimidin-4-yl)-2-ethoxybenzamide], the pIC50 on human OATP1B1 was 6.05; against human KHK-C (ADP-Glo), 7.95. Also, the pEC50 in test [1] is 7.34; in the test on HepG2 cells (setting [2]), 7.10; in the test with HepG2 cells (setting [3]), 7.52.

Turning to `COc1cc(-c2nc(N3C[C@@H](O)[C@@H]3C)nc3c2CCC3(F)F)ccc1C(N)=O` [Example 177, 4-(7,7-difluoro-2-((2S,3R)-3-hydroxy-2-methylazetidin-1-yl)-6,7-dihydro-5H-cyclopenta[d]pyrimidin-4-yl)-2-methoxybenzamide], the pIC50 is 5.43 on human OATP1B1 and 7.84 at human KHK-C (ADP-Glo). In addition, the results for the pEC50 (in test [1]; in the test on HepG2 cells (setting [2]); in the test with HepG2 cells (setting [3])) were 7.05, 7.18 and 7.55, respectively.

On to `C[C@H]1CCN1c1nc2c(c(-c3ccc4nc(N)[nH]c(=O)c4c3)n1)CCC2` [Example 463, (S)-2-amino-6-(2-(2-methylazetidin-1-yl)-6,7-dihydro-5H-cyclopenta[d]pyrimidin-4-yl)quinazolin-4(3H)-one], for which the pIC50 against human OATP1B1 was 5.87; against human KHK-C it was 8.41. Also, the pEC50 in test [1] was 6.82; in the test on HepG2 cells (setting [2]), 7.33; in the test with HepG2 cells (setting [3]), 8.14.

Turning to `C[C@H]1[C@H](O)CN1c1nc2c(c(-c3ccc4c(N)nccc4c3)n1)CCC2` [Example 385, (2S,3R)-1-[4-(1-amino-6-isoquinolyl)-6,7-dihydro-5H-cyclopenta[d]pyrimidin-2-yl]-2-methyl-azetidin-3-ol], on human OATP1B1, the pIC50 was 6.16. Also, the pEC50 in test [1] was 8.38; in the test on HepG2 cells (setting [2]) it was 7.95; in the test with HepG2 cells (setting [3]), 8.19.

Consider `C[C@H]1[C@H](O)CN1c1nc(-c2ccc3c(c2)OCC3NS(C)(=O)=O)c2c(n1)C(F)(F)CC2` (mixture of isomers) [Example 465], for which the pIC50 was 5.34 against human OATP1B1 and 8.85 against human KHK-C. Moreover, the pEC50 was 7.83 in test [1], 7.47 with HepG2 cells (setting [2]) and 7.81 in the test with HepG2 cells (setting [3]).

Regarding `C[C@H]1[C@H](O)CN1c1nc2c(c(-c3ccc(C4(N)COC4)cc3)n1)CCC2` [Example 159, (2S,3R)-1-(4-(4-(3-aminooxetan-3-yl)phenyl)-6,7-dihydro-5H-cyclopenta[d]pyrimidin-2-yl)-2-methylazetidin-3-ol], the pIC50 on human OATP1B1 is 5.13; at human KHK-A (ADP-Glo), 7.59; against human KHK-C (ADP-Glo), 8.00. For the same compound, the negative-log EC50 (pEC50) in test [1] was 7.43.

Take `C[C@H]1CCN1c1nc2c(c(-c3ccc4c(=O)[nH]cc(S(N)(=O)=O)c4c3)n1)CCC2` [Example 433, 6-[2-[(2S)-2-methylazetidin-1-yl]-6,7-dihydro-5H-cyclopenta[d]pyrimidin-4-yl]-1-oxo-2H-isoquinoline-4-sulfonamide]: the pIC50 on human OATP1B1 is 6.01; at human KHK-A, 7.57; against human KHK-C, 8.20. Also, the pEC50 in test [1] is 6.32.

As to `C[C@H]1CCN1c1nc2c(c(-c3cccc(C(=O)O)c3)n1)CCC2` [Example 9, (S)-3-(2-(2-methylazetidin-1-yl)-6,7-dihydro-5H-cyclopenta[d]pyrimidin-4-yl)benzoic acid], the pIC50 at human OATP1B1 was 6.35; at human KHK-A (ADP-Glo), 7.31; on human KHK-C (ADP-Glo) it was 7.16. The compound further gave a pEC50 in test [1] of 6.21.

(Values after US12410160B2 (Gilead Sciences, Inc., priority 2021, dated 2025).)
